This note sets out measurements from PubChem BioAssay (NCI).

Among the test systems are T-47D breast; BT-549 breast; ACHN renal; MALME-3M melanoma; U251 CNS; HCT-116 colon; SF-295 CNS; HT29 colon; A498 renal; SK-MEL-28 melanoma.
Common to all, as to experiment: NCI tumour cell line growth inhibition, 48 h

The structures appear in SMILES notation.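 Dose response: 5 concentrations. Exposure: 48 h. Format: 96-well plates. Endpoint: linear interpolation; highest concentration if not reached. TGI: total growth inhibition.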

As to `O=C(O)c1n[nH]nc1Cl`, the TGI in the assay on T-47D breast, with BT-549 breast, in the assay with ACHN renal, in the assay with MALME-3M melanoma, in the assay on U251 CNS and with HCT-116 colon was over 100 µM throughout. The TGI in the assay on SF-295 CNS, with HT29 colon, with A498 renal and in the assay on SK-MEL-28 melanoma was over 100 µM throughout.

For `CC(=O)n1nc(-c2ccccc2)n(/N=C/c2ccc([N+](=O)[O-])cc2)c1=O`, the TGI in the assay with T-47D breast, in the assay with BT-549 breast, with ACHN renal, in the assay on MALME-3M melanoma, in the assay with U251 CNS and with HCT-116 colon was over 100 µM each time. Besides, the TGI in the assay with SF-295 CNS, in the assay with HT29 colon, in the assay on A498 renal and with SK-MEL-28 melanoma was over 100 µM each time.

For the compound `O=[N+]([O-])c1cc2oc(COc3ccccc3)nc2cc1Cl`, the TGI was 81.4 µM with T-47D breast; 60 µM with BT-549 breast; over 100 µM with ACHN renal; 94.5 µM in the assay with MALME-3M melanoma; 52.5 µM in the assay on U251 CNS; 44.9 µM in the assay with HCT-116 colon. In addition, the TGI in the assay with SF-295 CNS is 38.8 µM; with HT29 colon, over 100 µM; in the assay on A498 renal, 53 µM; with SK-MEL-28 melanoma it was over 100 µM.

As to `CC(C)(C)c1cc(C(P(=O)(c2ccccc2)c2ccccc2)P(=O)(c2ccccc2)c2ccccc2)cc(C(C)(C)C)c1O`, the TGI in the assay on T-47D breast was over 10 µM; in the assay on BT-549 breast, over 8.23 µM; in the assay on ACHN renal, over 10 µM; in the assay on MALME-3M melanoma it was 6.38 µM; with U251 CNS, 6.68 µM; with HCT-116 colon, 3.23 µM. The TGI in the assay with SF-295 CNS amounted to 3.85 µM; with HT29 colon, 4.39 µM; with A498 renal, 5.08 µM; with SK-MEL-28 melanoma it was 4.71 µM.

Turning to `COc1ccc(N=C2SC(=N/N=c3\sc4ccccc4n3C)SC2=Nc2ccc(OC)cc2)cc1`, the TGI in the assay with T-47D breast, in the assay with BT-549 breast, in the assay on ACHN renal, with MALME-3M melanoma, in the assay with U251 CNS and with HCT-116 colon was over 100 µM in each case. In addition, the TGI in the assay with SF-295 CNS, in the assay with HT29 colon and in the assay on SK-MEL-28 melanoma was over 100 µM in each case.

Take `CC(C)(C)C(=O)OCC1CCC[N+]2(C)CCCCC12` (configuration not stated): the TGI with T-47D breast, in the assay with BT-549 breast, in the assay with ACHN renal, in the assay with MALME-3M melanoma, with U251 CNS and in the assay on HCT-116 colon was over 100 µM throughout. Also, the TGI in the assay with SF-295 CNS, in the assay with HT29 colon, in the assay with A498 renal and in the assay on SK-MEL-28 melanoma was over 100 µM each time.

For `Oc1ccc2ccccc2c1/C=C/c1ccc2c(Br)cc(Br)c(O)c2n1`, the TGI in the assay on T-47D breast is 35.4 µM; in the assay with BT-549 breast it was 26.8 µM; in the assay on ACHN renal it was 18.1 µM; in the assay on MALME-3M melanoma, 32 µM; in the assay with U251 CNS, 21.6 µM; in the assay on HCT-116 colon, 11.4 µM. Besides, the TGI with SF-295 CNS worked out at 18.5 µM; in the assay with HT29 colon, 41.4 µM; in the assay on A498 renal, 18.6 µM; in the assay with SK-MEL-28 melanoma, 31.8 µM.

For `COc1cc(/C=C2\CCC(C)C3C2=NN(C(C)=O)C3c2cc(OC)c(OC)c(OC)c2)cc(OC)c1OC` (configuration not stated), the TGI was 67.8 µM with T-47D breast; over 100 µM with BT-549 breast; over 100 µM in the assay on ACHN renal; over 100 µM with MALME-3M melanoma; over 100 µM in the assay with U251 CNS; over 100 µM with HCT-116 colon. The TGI was over 100 µM in the assay on SF-295 CNS, over 100 µM with HT29 colon, over 100 µM with A498 renal and over 51.2 µM in the assay with SK-MEL-28 melanoma.

Take `C[N+](C)([O-])CCC=C1c2ccccc2CCc2ccccc21`: the TGI was 77.7 µM with T-47D breast; over 100 µM in the assay on BT-549 breast; over 100 µM in the assay with ACHN renal; 45.4 µM in the assay on MALME-3M melanoma; 33.8 µM in the assay on U251 CNS; over 100 µM with HCT-116 colon. For the same compound, the TGI worked out at 70 µM with SF-295 CNS, 67.9 µM with HT29 colon, 48.1 µM in the assay with A498 renal and 98.7 µM with SK-MEL-28 melanoma.

With `CS(=O)(=O)Nc1ccc(N2Cc3cnc4ccc5[nH]ccc2c5c34)cc1`, the TGI with T-47D breast is 20.5 µM; with BT-549 breast it was 51.3 µM; in the assay with ACHN renal, over 100 µM; in the assay on MALME-3M melanoma it was 19.1 µM; in the assay with U251 CNS it was 36.5 µM; with HCT-116 colon it was 27.8 µM. The TGI with SF-295 CNS was over 100 µM; in the assay with HT29 colon, 95.7 µM; in the assay with A498 renal, 49.4 µM; with SK-MEL-28 melanoma, 41.6 µM.

For `Cc1cc2nc3c(C#N)c(-c4ccccc4)cc(Nc4ccc(Cl)cc4)n3c2cc1C`, the TGI in the assay on T-47D breast, in the assay with BT-549 breast, with ACHN renal, in the assay with MALME-3M melanoma, with U251 CNS and in the assay with HCT-116 colon was over 100 µM in each case. The TGI in the assay with SF-295 CNS, with A498 renal and in the assay with SK-MEL-28 melanoma was over 100 µM throughout.

`CN(c1ccc(Cl)cc1)S(=O)(=O)c1ccc([N+](=O)[O-])cc1`: the TGI with T-47D breast, in the assay on BT-549 breast, with ACHN renal, with MALME-3M melanoma, in the assay with U251 CNS and in the assay on HCT-116 colon was over 100 µM each time. In addition, the TGI in the assay with SF-295 CNS, in the assay with HT29 colon and with SK-MEL-28 melanoma was over 100 µM each time.

For the compound `C=C1C[C@@H]2O[C@H]3[C@H]4[C@@H](C[C@@H](C)[C@@H](OC(C)=O)[C@H]42)[C@@H](C)CO[C@@]3(C)[C@H](OC(C)=O)C[C@H]1O`, the TGI in the assay on T-47D breast, in the assay on BT-549 breast, in the assay on ACHN renal, with MALME-3M melanoma, with U251 CNS and in the assay with HCT-116 colon was over 100 µM in each case. In addition, the TGI with SF-295 CNS, with HT29 colon, with A498 renal and in the assay on SK-MEL-28 melanoma was over 100 µM throughout.

For `O=C(O)c1nc(-c2ccccc2)ncc1-c1nnnn1-c1ccccc1`, the TGI with T-47D breast, in the assay with BT-549 breast, in the assay on ACHN renal, in the assay with MALME-3M melanoma, in the assay with U251 CNS and with HCT-116 colon was over 100 µM in each case. Also, the TGI in the assay on SF-295 CNS, with HT29 colon, in the assay on A498 renal and in the assay on SK-MEL-28 melanoma was over 100 µM throughout.
